Test system: ArH(P)PR
Test: photometric NAD(P)H oxidation at […] nm, Michaelis-Menten fit
Assay type: biochemical, Actaea racemosa
Conditions: 0.1 M KPi pH 7.5
[1] = co-substrate concentration not in main text (Suppl. Table S3)

Row | SMILES | Km (1 mM NADPH) | also measured
1 | NC(=O)C1=CN([C@@H]2O[C@H](COP(=O)(O)OP(=O)(O)OC[C@H]3O[C@@H](n4cnc5c(N)ncnc54)[C@H](O)[C@@H]3O)[C@@H](O)[C@H]2O)C=CC1 [NADH] |  | Km [1]: 660 ± 90 µM
2 | NC(=O)C1=CN([C@@H]2O[C@H](COP(=O)(O)OP(=O)(O)OC[C@H]3O[C@@H](n4cnc5c(N)ncnc54)[C@H](OP(=O)(O)O)[C@@H]3O)[C@@H](O)[C@H]2O)C=CC1 [NADPH] |  | Km [1]: 23 ± 4 µM
3 | CC(=O)C(=O)O [P, pyruvic acid] | 1890 ± 510 µM | 
4 | O=C(O)C(=O)CO [β-HP, β-hydroxypyruvic acid] |  | Km (1 mM NADPH, error is SEM, substrate inhibition above 1 mM): 260 ± 120 µM

Continued, in another order:

Row | Km (1 mM NADPH) | SMILES | also measured
5 | 24000 ± 4650 µM | O=C(O)C(=O)Cc1ccc(O)c(O)c1 [DHPP, 3,4-dihydroxyphenylpyruvic acid] | 
6 | 5320 ± 2770 µM | O=C(O)C(=O)Cc1ccccc1 [PP, phenylpyruvic acid] | 
7 | 1130 ± 120 µM | O=C(O)C(=O)Cc1ccc(O)cc1 [pHPP, 4-hydroxyphenylpyruvic acid] | 

From publication PMC10978636, “Hydroxy(phenyl)pyruvic acid reductase in Actaea racemosa L.: a putative enzyme in cimicifugic and fukinolic acid biosynthesis” (Planta, 2024)
